Results reported in PMC9739780, “Pharmacokinetic Comparison of Eight Major Compounds of Lonicerae japonicae flos after Oral Administration in Normal Rats and Rats with Liver Injury” (Molecules, 2022).

Columns and labels:
[1] = Pharmacokinetics after oral administration of LJF extract in normal rats; format: in vivo, Sprague-Dawley rats
Experimental: (§1) This method has been successfully applied to study the pharmacokinetics of LJF orally in normal rats and acute liver injury rats. The pharmacokinetic parameters were analyzed using the […] model analysis on the DAS 2.0 platform. The mean plasma concentration–time curves of 3-CQA, 4-CQA, 5-CQA, 3,5-diCQA, 4,5-diCQA, PA, Secoxyloganin, and Sweroside are shown in Figure 4. Pharmacokinetic parameters included: Cmax, Tmax, area under the concentration–time curve (AUC0–t), AUC0–∞, MRT0–t, and MRT0–∞, as shown in Table 6 and Figure 4.
(§2) […] male Sprague-Dawley rats with body weights of 250 ± 20 g were purchased from the Experimental Animal Center of Heilongjiang University of Chinese Medicine and fed in the SPF animal laboratory, under a standard room temperature of 25 ± 2 °C, relative humidity of 50 ± 15%, and a 12 h light/12 h dark cycle. The experiment followed the ethical norms of experimental animals of Heilongjiang University of Chinese Medicine (License number: SCXK (Hei) 2021-004). Twelve rats were randomly divided into normal and model groups of six rats each. After intraperitoneal injection of CCl4 (0.06 mL/kg) for 24 h, blood samples were collected into heparinized tubes via the orbital vein, centrifuged at 2000 r/min for 20 min, and the levels of AST and ALT in serum were determined by the microplate method.
(§3) The pharmacokinetic properties and parameters of 3-CQA, 4-CQA, 5-CQA, 3,5-diCQA, 4,5-diCQA, PA, Secoxyloganin, and Sweroside in rats were studied after oral administration of the LJF extract. […] The supernatant plasma was then transferred to a 1.5 mL centrifuge tube and stored at −20 °C for later use.
(§4) Here, 100 μL aliquots of the plasma sample were thawed and pipetted into centrifuge tubes and 10 μL of chloramphenicol solution (500 ng/mL) and daidzein solution (500 ng/mL) were added, respectively, and 780 μL of methanol was added to precipitate for 5 min. Then, the supernatant was centrifuged for 5 min at 12,000 rp/min. The supernatant was transferred to a nitrogen blowing machine and dried at 40 °C. The residue was reconstituted in 100 μL of 50% methanol, and the sample was filtered through the membrane and then injected into the UPLC-MS/MS system.
(§5) DAS 2.0 software was used to calculate the pharmacokinetic parameters of the […] model, including Cmax, Tmax, AUC0–t, AUC0–∞, MRT0–t, MRT0–∞, and t1/2. The statistical software GraphPad Prism 5.0 was used for graph plotting and statistical analysis of drug duration curves.

[2] = Pharmacokinetics after oral administration of LJF extract in CCl4-induced liver injury model rats; format: in vivo, Sprague-Dawley rats; conditions: for AUC(0-t) / AUC(0-inf) / Cmax / MRT last / MRT inf / Tmax / half-life: male, Sprague-Dawley
Experimental: Intraperitoneal injection of CCl4 was used to induce liver injury in rats, and the successful establishment of the model was measured by detecting ALT and AST in rat plasma.
as §1, §2, §3, §4, §5

[3] = male, Sprague-Dawley, rat, normal group (N), oral LJF ethanol extract 15.75 g/kg, plasma, mean ± SD, n = 6, read-out: AUC0–t
[4] = male, Sprague-Dawley, rat, normal group (N), oral LJF ethanol extract 15.75 g/kg, plasma, mean ± SD, n = 6, read-out: AUC0–∞
[5] = male, Sprague-Dawley, rat, normal group (N), oral LJF ethanol extract 15.75 g/kg, plasma, mean ± SD, n = 6, read-out: Cmax
[6] = male, Sprague-Dawley, rat, normal group (N), oral LJF ethanol extract 15.75 g/kg, plasma, mean ± SD, n = 6, read-out: MRT0–t
[7] = male, Sprague-Dawley, rat, normal group (N), oral LJF ethanol extract 15.75 g/kg, plasma, mean ± SD, n = 6, read-out: MRT0–∞
[8] = male, Sprague-Dawley, rat, normal group (N), oral LJF ethanol extract 15.75 g/kg, plasma, mean ± SD, n = 6, read-out: Tmax
[9] = male, Sprague-Dawley, rat, normal group (N), oral LJF ethanol extract 15.75 g/kg, plasma, mean ± SD, n = 6, read-out: t1/2 (converted)
[10] = rat, liver injury model group (M, CCl4), oral LJF ethanol extract 15.75 g/kg, plasma, mean ± SD, n = 6, read-out: AUC0–t
[11] = rat, liver injury model group (M, CCl4), oral LJF ethanol extract 15.75 g/kg, plasma, mean ± SD, n = 6, read-out: AUC0–∞
[12] = rat, liver injury model group (M, CCl4), oral LJF ethanol extract 15.75 g/kg, plasma, mean ± SD, n = 6, read-out: Cmax
[13] = rat, liver injury model group (M, CCl4), oral LJF ethanol extract 15.75 g/kg, plasma, mean ± SD, n = 6, read-out: MRT0–t
[14] = rat, liver injury model group (M, CCl4), oral LJF ethanol extract 15.75 g/kg, plasma, mean ± SD, n = 6, read-out: MRT0–∞
[15] = rat, liver injury model group (M, CCl4), oral LJF ethanol extract 15.75 g/kg, plasma, mean ± SD, n = 6, read-out: Tmax
[16] = rat, liver injury model group (M, CCl4), oral LJF ethanol extract 15.75 g/kg, plasma, mean ± SD, n = 6, read-out: t1/2 (converted)
[17] = result in words, oral LJF extract, rat plasma
[18] = male, Sprague-Dawley, rat, in vivo, po, 15.75 g/kg

Structure (SMILES) | AUC(0-t) [1, 3] | AUC(0-inf) [1, 4] | Cmax [1, 5] | MRT last [1, 6] | MRT inf [1, 7] | Tmax [1, 8] | half-life [1, 9] | AUC(0-t) [2, 10] | AUC(0-inf) [2, 11] | Cmax [2, 12] | MRT last [2, 13] | MRT inf [2, 14] | Tmax [2, 15] | half-life [2, 16] | AUC0–t, model group compared with the normal group [2, 17] | AUC0–∞, model group compared with the normal group [2, 17] | Cmax, model group compared with the normal group [2, 17] | Tmax, model group compared with the normal group [2, 17] | AUC(0-inf) [1, 18] | AUC(0-t) [1, 18] | other results
O=C(/C=C/c1ccc(O)c(O)c1)O[C@@H]1[C@H](O)C[C@@](O)(C(=O)O)C[C@@H]1O (stereo in doubt) [4-CQA, 4-caffeoylquinic acid] | 2170 ± 616 ng·h/mL | 2340 ± 569 ng·h/mL | 1110 ± 448 ng/mL | 9.65 ± 1.72 h | 14.7 ± 4.18 h | 0.208 ± 0.0457 h | 15.2 ± 5.24 h | 5970 ± 1800 ng·h/mL | 6810 ± 1140 ng·h/mL | 2370 ± 425 ng/mL | 10.1 ± 1.06 h | 29.7 ± 24.8 h | 0.14 ± 0.043 h | 42.2 ± 31.7 h | increased | increased | increased | significantly decreased | – | – | –
O=C(/C=C/c1ccc(O)c(O)c1)O[C@H]1C[C@](O)(C(=O)O)C[C@@H](O)[C@H]1O [3-CQA, 3-caffeoylquinic acid] | 12100 ng·h/mL | 13100 ng·h/mL | 5110 ± 1220 ng/mL | 13.9 ± 1.31 h | 18.2 ± 1.94 h | 0.208 ± 0.0457 h | 12.9 ± 0.765 h | 16400 ng·h/mL | 17400 ng·h/mL | 6290 ± 1260 ng/mL | 13.4 ± 1.67 h | 23.3 ± 11.2 h | 0.19 ± 0.043 h | 12.2 ± 3.12 h | significantly increased | significantly increased | increased but there was no significant difference | – | – | – | –
O=C(/C=C/c1ccc(O)c(O)c1)O[C@@H]1C[C@](O)(C(=O)O)C[C@@H](O)[C@H]1O [5-CQA, 5-caffeoylquinic acid] | – | – | 266 ± 102 ng/mL | 18 ± 2.34 h | 21.4 ± 2.86 h | – | 17.9 ± 9.97 h | 3570 ± 686 ng·h/mL | 3970 ± 712 ng·h/mL | 1120 ± 316 ng/mL | – | 20.9 ± 8.54 h | – | 18.9 ± 18.4 h | increased | increased | increased | not significantly different | – | – | Tmax ([1]; normal group (N), oral LJF ethanol extract 15.75 g/kg, plasma, mean ± SD, n = 6): 0.24 ± 0.03405 h; MRT0–t ([2]; liver injury model group (M, CCl4), oral LJF ethanol extract 15.75 g/kg, plasma, mean ± SD, n = 6): 11.08 ± 2.42 h
O=C(O)c1ccc(O)c(O)c1 [PA, protocatechuic acid] | 198 ± 37 ng·h/mL | 292 ± 26 ng·h/mL | 22.6 ± 8.36 ng/mL | 23.2 ± 0.86 h | 44.1 ± 16.9 h | 0.33 ± 0.13 h | 24.8 ± 12.8 h | 219 ± 59.1 ng·h/mL | 547 ± 209 ng·h/mL | 23 ± 2.97 ng/mL | 26.6 ± 2.13 h | 49.8 ± 28.9 h | 0.18 ± 0.034 h | 25.5 ± 17 h | – | increased | – | reached the peak earlier | – | – | clearance rate, model group compared with the normal group ([2]; result in words, oral LJF extract): decreased; MRT0–t, model group compared with the normal group [2, 17]: prolonged
C=C[C@H]1[C@H](O[C@@H]2O[C@H](CO)[C@@H](O)[C@H](O)[C@H]2O)OC=C(C(=O)OC)[C@H]1CC(=O)O [Secoxyloganin] | – | – | – | – | – | – | – | – | – | – | – | – | – | – | – | – | – | – | 7610 ± 4120 ng·h/mL | 6230 ± 1070 ng·h/mL | Cmax [1, 18]: 1510 ± 331 ng/mL; MRT inf [1, 18]: 12.4 ± 1.04 h; MRT last [1, 18]: 11.9 ± 1.69 h; Tmax [1, 18]: 0.46 ± 0.102 h; half-life [1, 18]: 16.1 ± 19.1 h; AUC(0-inf) ([2]; rat, in vivo, po, 15.75 g/kg): 17100 ng·h/mL; AUC(0-t) ([2]; rat, in vivo, po, 15.75 g/kg): 15000 ng·h/mL; Cmax ([2]; rat, in vivo, po, 15.75 g/kg): 4150 ± 377 ng/mL; MRT inf ([2]; rat, in vivo, po, 15.75 g/kg): 18.2 ± 2.24 h; MRT last ([2]; rat, in vivo, po, 15.75 g/kg): 8.74 ± 0.58 h; Tmax ([2]; rat, in vivo, po, 15.75 g/kg): 0.29 ± 0.102 h; half-life ([2]; rat, in vivo, po, 15.75 g/kg): 23.6 ± 3.48 h; Cmax, model group compared with the normal group ([2]; rat, in vivo, po): significantly higher; MRT0–∞, model group compared with the normal group ([2]; rat, in vivo, po): significantly higher; Tmax, model group compared with the normal group ([2]; rat, in vivo, po): significantly lower
C=C[C@H]1[C@H](O[C@@H]2O[C@H](CO)[C@@H](O)[C@H](O)[C@H]2O)OC=C2C(=O)OCC[C@H]21 [Sweroside] | – | – | – | – | – | – | – | – | – | – | – | – | – | – | – | – | – | – | 10000 ng·h/mL | 9690 ± 1410 ng·h/mL | Cmax [1, 18]: 1930 ± 609 ng/mL; MRT0–t [1, 18]: 12.29 ± 1.14 h; MRT inf [1, 18]: 13.9 ± 1.86 h; Tmax [1, 18]: 0.53 ± 0.38 h; half-life [1, 18]: 9.78 ± 2.87 h; AUC(0-inf) ([2]; rat, in vivo, po, 15.75 g/kg): 16700 ng·h/mL; AUC(0-t) ([2]; rat, in vivo, po, 15.75 g/kg): 16000 ng·h/mL; Cmax ([2]; rat, in vivo, po, 15.75 g/kg): 2364.23 ± 440 ng/mL; MRT inf ([2]; rat, in vivo, po, 15.75 g/kg): 13.7 ± 1.33 h; MRT last ([2]; rat, in vivo, po, 15.75 g/kg): 11.3 ± 0.48 h; Tmax ([2]; rat, in vivo, po, 15.75 g/kg): 0.67 ± 0.26 h; half-life ([2]; rat, in vivo, po, 15.75 g/kg): 11.8 ± 1.51 h; AUC0–∞, model group compared with the normal group ([2]; rat, in vivo, po): significantly higher; Cmax, model group compared with the normal group ([2]; rat, in vivo, po): increased compared with that in the normal group, but there was no significant difference
